The record followed here is patent publication US7423181B2, “Aminoalkoxy-functional chalcones” (Lica Pharmaceuticals A/S, priority 2002, dated 2008).

The test relates to panel of six strains Helicobacter pylori. Description: MIC determination against Helicobacter pylori (agar dilution). To be noted: read-out: MICs against Helicobacter pylori. On the technique in general: In agar dilution the substance is mixed into plates at graded concentrations.

SMILES strings stand for the structures. In brackets after ≈: the same amount, converted by molar mass.

Take `CC(=O)Nc1cccc(C(=O)/C=C/c2cc(-c3cc(C)cc(C)c3)ccc2OCCN(C)C)c1` [Compound C088, N-(3-{3-[4-(2-Dimethylamino-ethoxy)-3′,5′-dimethyl-biphenyl-3-yl]-(E)-acryloyl}-phenyl)-acetamide]: the MIC lay in the range of 12 to 25 µM (≈ 5.48 to 11.4 µg/mL).
